The text below walks through data of publication PMC4728128, “Two-subunit DNA escort mechanism and inactive subunit bypass in an ultra-fast ring ATPase” (eLife, 2015).

As usually defined, the Km is the concentration of substrate that gives half-maximal velocity.

Experiment [1] has as its target T1, SpoIIIE (Bacillus subtilis, UniProt P21458).
T1 construct: N-terminal biotin tag (PinPoint Xa-1) fused to SpoIIIE from plasmid pJB103 (Bath et al. 2000); recombinant, purified; homo-hexamer
The experiment is described as follows: optical tweezers rupture force of SpoIIIE-DNA tether (indirect sign of nucleotide binding). To be noted: 1 mM ADP, no ATP; dsDNA.

Experiment [2] concerns the target T1, SpoIIIE. The experiment is described as follows: single-molecule optical tweezers DNA translocation. Format: biochemical. The following applies: dsDNA, 50 mM Tris-HCl pH 7.5, 10 mM MgCl2.

T1 sequence (P21458 175-787): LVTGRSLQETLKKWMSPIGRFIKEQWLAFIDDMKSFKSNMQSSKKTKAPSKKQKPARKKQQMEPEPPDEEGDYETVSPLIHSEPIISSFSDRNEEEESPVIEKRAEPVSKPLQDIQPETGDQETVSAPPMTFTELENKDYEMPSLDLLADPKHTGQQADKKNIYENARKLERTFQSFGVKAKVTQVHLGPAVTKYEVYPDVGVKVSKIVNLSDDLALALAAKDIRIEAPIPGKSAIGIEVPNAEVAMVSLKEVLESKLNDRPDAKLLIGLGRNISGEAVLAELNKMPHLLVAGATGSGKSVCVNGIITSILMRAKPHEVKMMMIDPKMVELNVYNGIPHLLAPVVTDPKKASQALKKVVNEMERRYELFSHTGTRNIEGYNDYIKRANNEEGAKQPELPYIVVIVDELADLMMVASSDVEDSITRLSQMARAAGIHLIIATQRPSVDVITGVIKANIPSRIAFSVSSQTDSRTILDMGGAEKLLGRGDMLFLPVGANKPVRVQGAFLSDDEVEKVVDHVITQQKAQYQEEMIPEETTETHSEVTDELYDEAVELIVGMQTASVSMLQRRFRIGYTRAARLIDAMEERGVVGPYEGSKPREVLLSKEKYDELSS

For `Nc1ncnc2c1ncn2[C@@H]1O[C@H](COP(=O)(O)OP(=O)(O)O)[C@@H](O)[C@H]1O` [ADP], the “optical tweezers rupture force of SpoIIIE-DNA tether (indirect sign of nucleotid)” value at SpoIIIE [1] is “In buffers containing only ADP or ATPγS, SpoIIIE could bind to DNA”.
Turning to `Nc1ncnc2c1ncn2[C@@H]1O[C@H](COP(=O)(O)OP(=O)(O)OP(=O)(O)O)[C@@H](O)[C@H]1O` [ATP], on SpoIIIE [2], the Km came out at 505 ± 50 µM.
